Legend:
[1] = Inhibition of EGFR Del ex19 mutant in human PC9 cells assessed as suppression of cell proliferation
[2] = Inhibition of wild type EGFR in human NCI-H1666 cells assessed as suppression of cell proliferation
[3] = Inhibition of EGFR Del ex19 mutant in human HCC827 cells assessed as suppression of cell proliferation
[4] = Inhibition of EGFR Del ex19/T790M double mutant in human PC9 cells assessed as suppression of cell proliferation
[5] = Inhibition of EGFR L858R/T790M double mutant in human NCI-H1975 cells assessed as suppression of cell proliferation

Question: With `C=CC(=O)N1CC[C@@H](Oc2nc(Nc3ccc(N4CCC(N5CCN(C)CC5)CC4)cc3)c(C(N)=O)nc2CC)C1` [US9085540, 54] as the molecule, how does the IC50 [1] read?
Answer: Its IC50 is 8 nM.

Question: And the IC50 [2]?
Answer: The IC50 was 230 nM.

Question: And the IC50 [3]?
Answer: Its IC50 is 8 nM.

Question: And the IC50 [4]?
Answer: The IC50 was 8 nM.

Question: And the IC50 [5]?
Answer: Its IC50 is 8 nM.

— BindingDB's records for doi:10.1016/j.bmcl.2016.02.067 (Pfizer, 2016)
